One compound from US11020409B2, “Broad antiviral therapy with membrane modifying oxysterols” (priority 2012, dated 2021) can be followed below.

In this assay the test system is VSV-GFP. The assay is described as follows: microbe, parasite or virus in culture. Format: cell-based, vesicular stomatitis virus.

Structures are written as SMILES.

On to `C[C@H](CCCC(C)(C)O)[C@H]1CC[C@H]2[C@@H]3CC=C4C[C@@H](O)CC[C@]4(C)[C@H]3CC[C@]12C` [25HC, 25-hydroxycholesterol], for which the “VSV infection in HEK293T overexpressing active forms of SREBP1-A, SREBP1-B, and SREBP2” value is recorded as “inhibited VSV infection”.
